Test results taken from PubChem BioAssay (NCI).
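Five concentrations, 48 hours, 96-well plates. GI50: concentration for 50% inhibition of growth. TGI: total growth inhibition.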

Experiments:
Assay in all cases: DTP human tumour cell line panel, 48 h
OVCAR-5 ovarian = test system: OVCAR-5 ovarian
MCF7 breast = test system: MCF7 breast
SR leukemia = test system: SR leukemia
SN12C renal = test system: SN12C renal
CAKI-1 renal = test system: CAKI-1 renal
SK-MEL-2 melanoma = test system: SK-MEL-2 melanoma
SK-MEL-5 melanoma = test system: SK-MEL-5 melanoma
SF-268 CNS = test system: SF-268 CNS
786-0 renal = test system: 786-0 renal
IGROV1 ovarian = test system: IGROV1 ovarian
UO-31 renal = test system: UO-31 renal
K-562 leukemia = test system: K-562 leukemia
OVCAR-8 ovarian = test system: OVCAR-8 ovarian
SF-539 CNS = test system: SF-539 CNS
A549 NSCLC = test system: A549 NSCLC
NCI-H226 lung = test system: NCI-H226 lung
MDA-MB-435 = test system: MDA-MB-435
DU-145 prostate = test system: DU-145 prostate
HT29 colon = test system: HT29 colon
SF-295 CNS = test system: SF-295 CNS
SW-620 colon = test system: SW-620 colon
COLO 205 colon = test system: COLO 205 colon
MOLT-4 leukemia = test system: MOLT-4 leukemia
PC-3 prostate = test system: PC-3 prostate
HCT-116 colon = test system: HCT-116 colon
OVCAR-4 ovarian = test system: OVCAR-4 ovarian
SNB-19 CNS = test system: SNB-19 CNS
SK-OV-3 ovarian = test system: SK-OV-3 ovarian
BT-549 breast = test system: BT-549 breast
MDA-MB-231 breast = test system: MDA-MB-231 breast
UACC-257 melanoma = test system: UACC-257 melanoma
HS 578T breast = test system: HS 578T breast
SK-MEL-28 melanoma = test system: SK-MEL-28 melanoma
SNB-75 CNS = test system: SNB-75 CNS
CCRF-CEM leukemia = test system: CCRF-CEM leukemia
HCC-2998 colon = test system: HCC-2998 colon
UACC-62 melanoma = test system: UACC-62 melanoma
U251 CNS = test system: U251 CNS
NCI-H460 lung = test system: NCI-H460 lung
NCI-H522 lung = test system: NCI-H522 lung
KM12 colon = test system: KM12 colon
RPMI-8226 leukemia = test system: RPMI-8226 leukemia
HL-60(TB) leukemia = test system: HL-60(TB) leukemia
LOX IMVI melanoma = test system: LOX IMVI melanoma
RXF 393 renal = test system: RXF 393 renal
HCT-15 colon = test system: HCT-15 colon
HOP-62 NSCLC = test system: HOP-62 NSCLC
ACHN renal = test system: ACHN renal
M14 melanoma = test system: M14 melanoma
OVCAR-3 ovarian = test system: OVCAR-3 ovarian
NCI/ADR-RES ovarian = test system: NCI/ADR-RES ovarian
A498 renal = test system: A498 renal

## Brc1ccc(SCN(CSc2ccc(Br)cc2)Cc2ccccc2)cc1
OVCAR-5 ovarian
  GI50: 2.89 µM
  TGI: 11.4 µM
MCF7 breast
  GI50: 3.06 µM
  TGI: 13.3 µM
SR leukemia
  GI50: 2.77 µM
  TGI: 7.77 µM
SN12C renal
  GI50: 1.38 µM
  TGI: 14.2 µM
CAKI-1 renal
  GI50: 3.47 µM
  TGI: 12.5 µM
SK-MEL-2 melanoma
  GI50: 6.06 µM
  TGI: 19.9 µM
SK-MEL-5 melanoma
  GI50: 1.77 µM
  TGI: 3.46 µM
SF-268 CNS
  GI50: 2.31 µM
  TGI: 12.6 µM
786-0 renal
  GI50: 4.3 µM
  TGI: 15.5 µM
IGROV1 ovarian
  GI50: 2.64 µM
  TGI: 7.25 µM
UO-31 renal
  GI50: 1.93 µM
  TGI: 8.64 µM
K-562 leukemia
  GI50: 5.44 µM
  TGI: 60.6 µM
OVCAR-8 ovarian
  GI50: 3.71 µM
  TGI: 17.9 µM
SF-539 CNS
  GI50: 1.92 µM
  TGI: 3.88 µM
A549 NSCLC
  GI50: 2.41 µM
  TGI: 11 µM
NCI-H226 lung
  GI50: 1.93 µM
  TGI: 4.39 µM
MDA-MB-435
  GI50: 3.1 µM
  TGI: 12.2 µM
DU-145 prostate
  GI50: 6.12 µM
  TGI: 21 µM
HT29 colon
  GI50: 5.05 µM
  TGI: 18 µM
SF-295 CNS
  GI50: 1.28 µM
  TGI: 3.49 µM
SW-620 colon
  GI50: 3.58 µM
  TGI: 15.1 µM
COLO 205 colon
  GI50: 3.85 µM
  TGI: 13.7 µM
MOLT-4 leukemia
  GI50: 2.37 µM
  TGI: 6.82 µM
PC-3 prostate
  GI50: 2.34 µM
  TGI: 10.3 µM
HCT-116 colon
  GI50: 3.66 µM
  TGI: 14.4 µM
OVCAR-4 ovarian
  GI50: 10.4 µM
  TGI: 87.8 µM
SNB-19 CNS
  GI50: 2.69 µM
  TGI: 23.5 µM
SK-OV-3 ovarian
  GI50: 7.12 µM
  TGI: 51 µM
BT-549 breast
  GI50: 1.75 µM
  TGI: 3.9 µM
MDA-MB-231 breast
  GI50: 1.69 µM
  TGI: 4.3 µM
UACC-257 melanoma
  GI50: 4.05 µM
  TGI: 17.5 µM
HS 578T breast
  GI50: 2.98 µM
  TGI: > 100 µM
SK-MEL-28 melanoma
  GI50: 5.12 µM
  TGI: 23.4 µM
SNB-75 CNS
  GI50: 2.28 µM
  TGI: 10.9 µM
CCRF-CEM leukemia
  GI50: 2.1 µM
  TGI: 7.4 µM
HCC-2998 colon
  GI50: 11.5 µM
  TGI: 25.5 µM
UACC-62 melanoma
  GI50: 3.01 µM
  TGI: 9.34 µM
U251 CNS
  GI50: 2.02 µM
  TGI: 6.82 µM
NCI-H460 lung
  GI50: 2.78 µM
  TGI: 12 µM
NCI-H522 lung
  GI50: 2.43 µM
  TGI: 5.62 µM
KM12 colon
  GI50: 2.67 µM
  TGI: 10.9 µM
RPMI-8226 leukemia
  GI50: 3.31 µM
  TGI: 10.5 µM
HL-60(TB) leukemia
  GI50: 2.35 µM
  TGI: 5.36 µM
LOX IMVI melanoma
  GI50: 1.61 µM
  TGI: 3.19 µM
RXF 393 renal
  GI50: 5.54 µM
  TGI: 20.4 µM
HCT-15 colon
  GI50: 3.56 µM
  TGI: 18.8 µM
HOP-62 NSCLC
  GI50: 3.2 µM
  TGI: 14.2 µM
ACHN renal
  GI50: 4.49 µM
  TGI: 19 µM
M14 melanoma
  GI50: 3.79 µM
  TGI: 14.2 µM
OVCAR-3 ovarian
  GI50: 3.54 µM
  TGI: 11.4 µM
NCI/ADR-RES ovarian
  GI50: 4 µM
  TGI: 95.8 µM
A498 renal
  GI50: 1.51 µM
  TGI: 3.47 µM
